Laboratory results: ChEMBL document CHEMBL1201862, “PubChem BioAssay data set” (2004)
The source made the active and inactive calls.

What was measured:
H9c2 = test: cells; assay type: functional, cell-based; details: Rattus norvegicus, H9c2, Myocardium;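 also: confirmatory concentration-response retest of ultra-high-throughput screening hits for modulation of myocardial damage; cell death induced by hydrogen peroxide oxidative stress; compound pretreatment for 60 min then peroxide exposure for 2 h; potency is for protecting the cells against peroxide damage rather than for killing them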
[1] = Luminescence Cell-Based Dose Response HTS to Identify Activators of Luciferase Translation or Activity in H4 […] Cells. [Related pubchem assays: 1829 (Project Summary), 1814 (Primary HTS)]; assay type: functional
[2] = Luminescence Cell-Based Dose Confirmation HTS to Identify Activators of 5'UTR Stem-Loop Driven Alpha-Synuclein mRNA Translation in H4 Neuroglioblastoma Cells. [Related pubchem assays: 1829 (Project Summary), 1814 (Primary HTS)]; assay type: functional
H4 = test: Luminescence Cell-Based Dose Response HTS to Identify Activators of 5'UTR Stem-Loop Driven Prion Protein mRNA Translation in H4 Neuroglioblastoma Cells. [Related pubchem assays: 1829 (Project Summary), 1814 (Primary HTS)]; assay type: functional; details: Homo sapiens
Streptococcus = test: GAS UMAA2166 growth inhibition – luminescence, BacTiterGlo, counter-screen for streptokinase expression inhibitor project, dose response (AID 1915); assay type: functional, organism-based;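 also: potency for reduction of bacterial viability or growth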
Fatty acid synthase [3] = molecular target: T1, Fatty acid synthase (Homo sapiens, UniProt P49327); test: inhibition of human FAS-TE enzyme activity – biochemical, endpoint fluorescence intensity, uHTS hits, dose response (AID 624327); assay type: functional;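 also: fluorescence from hydrolysis of an O-methyl fluorescein acyl ester substrate by the enzyme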
Streptokinase A = molecular target: T2, Streptokinase A (Streptococcus pyogenes serotype M1, UniProt P10520); test: viability-normalized secreted streptokinase activity reduction – plasminogen activation absorbance, OD405, dose response (AID 1914); assay type: functional, Streptococcus pyogenes M1 GAS;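 also: secreted streptokinase activity via plasminogen activation per viability signal from cell pellet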
T2 sequence (P10520 whole entry): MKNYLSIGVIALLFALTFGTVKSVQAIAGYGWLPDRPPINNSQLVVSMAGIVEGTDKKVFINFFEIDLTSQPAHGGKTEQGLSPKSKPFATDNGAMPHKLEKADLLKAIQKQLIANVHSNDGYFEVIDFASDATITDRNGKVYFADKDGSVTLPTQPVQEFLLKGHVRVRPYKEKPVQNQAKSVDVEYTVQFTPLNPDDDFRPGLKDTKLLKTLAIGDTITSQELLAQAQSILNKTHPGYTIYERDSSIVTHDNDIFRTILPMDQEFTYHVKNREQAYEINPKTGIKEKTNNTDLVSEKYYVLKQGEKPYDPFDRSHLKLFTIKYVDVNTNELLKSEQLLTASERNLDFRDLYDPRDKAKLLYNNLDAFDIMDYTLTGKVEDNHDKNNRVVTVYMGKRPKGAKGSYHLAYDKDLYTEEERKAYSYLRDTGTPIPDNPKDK

Fatty acid synthase [4] = molecular target: T1, Fatty acid synthase; test: inhibition of human FAS-TE enzyme activity – biochemical, kinetic fluorescence intensity, dose response (AID 624326); assay type: functional;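 also: rate of fluorescence rise from hydrolysis of a fluorogenic O-methyl fluorescein ester substrate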
[5] = test system: Streptococcus sp. 'group A'; test: Streptococcus pyogenes SK(-)GAS viability under kanamycin – luminescence, BacTiterGlo, confirmation, counter-screen for streptokinase expression inhibitor project, dose response (AID 1900); assay type: functional, organism-based
[6] = molecular target: T3, Polyadenylate-binding protein 1 (Homo sapiens, UniProt P11940); test: MLLE domain peptide-binding blockers, IC50 – biochemical, fluorescence polarization, FITC-PAM2 peptide, dose response (AID 602259); assay type: functional; details: read-out: IC50_Mean
[7] = molecular target: T3, Polyadenylate-binding protein 1; test: MLLE binding blockers, Cy5 peptide tracer – biochemical, fluorescence polarization, Cy5-PAM2 peptide, secondary, miRNA deadenylation inhibitor project, dose response (AID 602260); assay type: functional; details: read-out: IC50_Mean
[8] = molecular target: Luciferin 4-monooxygenase (Photinus pyralis, UniProt P08659); test: inhibition of purified Photinus pyralis luciferase – biochemical, luminescence, dose response (AID 1891)
[9] = Luminescence Cell-Based Dose Confirmation HTS to Identify Inhibitors of Platelet Dense Granule Release. [Related pubchem assays: 1663 (Primary HTS), 1678 (Summary of Project)]; assay type: functional
Protein skinhead-1 = molecular target: T4, Protein skinhead-1 (Caenorhabditis elegans, UniProt P34707); assay type: functional
T4 sequence (P34707 whole entry): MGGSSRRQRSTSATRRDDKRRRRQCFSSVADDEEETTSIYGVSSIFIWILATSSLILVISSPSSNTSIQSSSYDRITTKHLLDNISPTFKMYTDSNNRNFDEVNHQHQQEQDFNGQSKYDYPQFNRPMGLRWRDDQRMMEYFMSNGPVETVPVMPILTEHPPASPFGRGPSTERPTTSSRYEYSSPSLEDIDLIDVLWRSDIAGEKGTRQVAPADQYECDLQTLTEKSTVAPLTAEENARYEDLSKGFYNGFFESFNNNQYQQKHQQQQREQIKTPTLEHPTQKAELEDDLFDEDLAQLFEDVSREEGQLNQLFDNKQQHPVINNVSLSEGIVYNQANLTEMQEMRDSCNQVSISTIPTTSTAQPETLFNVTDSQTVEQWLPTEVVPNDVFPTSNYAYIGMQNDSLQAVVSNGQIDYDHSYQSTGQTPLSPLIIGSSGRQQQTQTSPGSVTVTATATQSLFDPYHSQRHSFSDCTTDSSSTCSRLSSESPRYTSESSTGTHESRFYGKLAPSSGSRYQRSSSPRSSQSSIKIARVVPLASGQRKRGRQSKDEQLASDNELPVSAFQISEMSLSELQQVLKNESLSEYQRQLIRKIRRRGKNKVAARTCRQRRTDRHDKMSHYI

[10] = molecular target: T5, Corticotropin-releasing factor receptor 2/Corticotropin-releasing factor-binding protein (Homo sapiens, UniProt P24387+Q13324); test: activators of CRF receptor 2 with binding protein – uHTS hits, confirmation (AID 602473); assay type: functional; details: read-out: EC50_Mean
T5 sequence (Q13324 whole entry): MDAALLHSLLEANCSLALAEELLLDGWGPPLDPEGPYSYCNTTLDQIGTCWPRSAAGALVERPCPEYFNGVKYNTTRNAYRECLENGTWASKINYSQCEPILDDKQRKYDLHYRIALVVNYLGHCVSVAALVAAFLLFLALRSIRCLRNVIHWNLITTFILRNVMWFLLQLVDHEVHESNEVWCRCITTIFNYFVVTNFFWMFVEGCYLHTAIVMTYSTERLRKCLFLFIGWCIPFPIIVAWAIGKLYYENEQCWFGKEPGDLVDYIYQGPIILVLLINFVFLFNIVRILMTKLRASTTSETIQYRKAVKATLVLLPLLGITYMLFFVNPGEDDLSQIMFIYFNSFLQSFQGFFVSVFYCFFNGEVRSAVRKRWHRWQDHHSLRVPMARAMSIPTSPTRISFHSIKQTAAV
T5 sequence (P24387 whole entry): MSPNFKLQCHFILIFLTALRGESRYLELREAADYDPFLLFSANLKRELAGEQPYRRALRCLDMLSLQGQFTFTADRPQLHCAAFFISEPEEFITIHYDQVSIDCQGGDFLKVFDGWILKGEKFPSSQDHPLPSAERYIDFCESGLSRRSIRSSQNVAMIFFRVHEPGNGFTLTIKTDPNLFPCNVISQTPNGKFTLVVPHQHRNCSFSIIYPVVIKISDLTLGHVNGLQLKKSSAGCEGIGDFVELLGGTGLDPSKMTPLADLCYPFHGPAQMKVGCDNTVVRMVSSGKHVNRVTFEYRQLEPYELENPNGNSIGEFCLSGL

T3 sequence (P11940 whole entry, the tested form may be a part): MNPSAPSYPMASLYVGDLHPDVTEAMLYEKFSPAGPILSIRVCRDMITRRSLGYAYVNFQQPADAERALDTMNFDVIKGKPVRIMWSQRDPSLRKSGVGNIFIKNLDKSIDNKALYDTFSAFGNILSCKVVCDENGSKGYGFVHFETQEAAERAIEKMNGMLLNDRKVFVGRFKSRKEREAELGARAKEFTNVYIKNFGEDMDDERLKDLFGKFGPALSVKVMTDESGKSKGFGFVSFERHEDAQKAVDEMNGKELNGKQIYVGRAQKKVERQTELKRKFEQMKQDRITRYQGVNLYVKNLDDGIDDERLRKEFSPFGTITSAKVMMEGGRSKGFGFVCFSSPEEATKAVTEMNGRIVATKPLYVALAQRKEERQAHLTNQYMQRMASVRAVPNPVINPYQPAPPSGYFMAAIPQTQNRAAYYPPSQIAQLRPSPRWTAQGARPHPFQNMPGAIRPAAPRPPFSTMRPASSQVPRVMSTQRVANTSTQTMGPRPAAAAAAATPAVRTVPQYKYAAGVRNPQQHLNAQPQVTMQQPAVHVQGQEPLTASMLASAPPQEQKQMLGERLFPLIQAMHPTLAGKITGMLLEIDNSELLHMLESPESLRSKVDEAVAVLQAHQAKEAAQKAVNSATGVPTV
T1 sequence (P49327 whole entry): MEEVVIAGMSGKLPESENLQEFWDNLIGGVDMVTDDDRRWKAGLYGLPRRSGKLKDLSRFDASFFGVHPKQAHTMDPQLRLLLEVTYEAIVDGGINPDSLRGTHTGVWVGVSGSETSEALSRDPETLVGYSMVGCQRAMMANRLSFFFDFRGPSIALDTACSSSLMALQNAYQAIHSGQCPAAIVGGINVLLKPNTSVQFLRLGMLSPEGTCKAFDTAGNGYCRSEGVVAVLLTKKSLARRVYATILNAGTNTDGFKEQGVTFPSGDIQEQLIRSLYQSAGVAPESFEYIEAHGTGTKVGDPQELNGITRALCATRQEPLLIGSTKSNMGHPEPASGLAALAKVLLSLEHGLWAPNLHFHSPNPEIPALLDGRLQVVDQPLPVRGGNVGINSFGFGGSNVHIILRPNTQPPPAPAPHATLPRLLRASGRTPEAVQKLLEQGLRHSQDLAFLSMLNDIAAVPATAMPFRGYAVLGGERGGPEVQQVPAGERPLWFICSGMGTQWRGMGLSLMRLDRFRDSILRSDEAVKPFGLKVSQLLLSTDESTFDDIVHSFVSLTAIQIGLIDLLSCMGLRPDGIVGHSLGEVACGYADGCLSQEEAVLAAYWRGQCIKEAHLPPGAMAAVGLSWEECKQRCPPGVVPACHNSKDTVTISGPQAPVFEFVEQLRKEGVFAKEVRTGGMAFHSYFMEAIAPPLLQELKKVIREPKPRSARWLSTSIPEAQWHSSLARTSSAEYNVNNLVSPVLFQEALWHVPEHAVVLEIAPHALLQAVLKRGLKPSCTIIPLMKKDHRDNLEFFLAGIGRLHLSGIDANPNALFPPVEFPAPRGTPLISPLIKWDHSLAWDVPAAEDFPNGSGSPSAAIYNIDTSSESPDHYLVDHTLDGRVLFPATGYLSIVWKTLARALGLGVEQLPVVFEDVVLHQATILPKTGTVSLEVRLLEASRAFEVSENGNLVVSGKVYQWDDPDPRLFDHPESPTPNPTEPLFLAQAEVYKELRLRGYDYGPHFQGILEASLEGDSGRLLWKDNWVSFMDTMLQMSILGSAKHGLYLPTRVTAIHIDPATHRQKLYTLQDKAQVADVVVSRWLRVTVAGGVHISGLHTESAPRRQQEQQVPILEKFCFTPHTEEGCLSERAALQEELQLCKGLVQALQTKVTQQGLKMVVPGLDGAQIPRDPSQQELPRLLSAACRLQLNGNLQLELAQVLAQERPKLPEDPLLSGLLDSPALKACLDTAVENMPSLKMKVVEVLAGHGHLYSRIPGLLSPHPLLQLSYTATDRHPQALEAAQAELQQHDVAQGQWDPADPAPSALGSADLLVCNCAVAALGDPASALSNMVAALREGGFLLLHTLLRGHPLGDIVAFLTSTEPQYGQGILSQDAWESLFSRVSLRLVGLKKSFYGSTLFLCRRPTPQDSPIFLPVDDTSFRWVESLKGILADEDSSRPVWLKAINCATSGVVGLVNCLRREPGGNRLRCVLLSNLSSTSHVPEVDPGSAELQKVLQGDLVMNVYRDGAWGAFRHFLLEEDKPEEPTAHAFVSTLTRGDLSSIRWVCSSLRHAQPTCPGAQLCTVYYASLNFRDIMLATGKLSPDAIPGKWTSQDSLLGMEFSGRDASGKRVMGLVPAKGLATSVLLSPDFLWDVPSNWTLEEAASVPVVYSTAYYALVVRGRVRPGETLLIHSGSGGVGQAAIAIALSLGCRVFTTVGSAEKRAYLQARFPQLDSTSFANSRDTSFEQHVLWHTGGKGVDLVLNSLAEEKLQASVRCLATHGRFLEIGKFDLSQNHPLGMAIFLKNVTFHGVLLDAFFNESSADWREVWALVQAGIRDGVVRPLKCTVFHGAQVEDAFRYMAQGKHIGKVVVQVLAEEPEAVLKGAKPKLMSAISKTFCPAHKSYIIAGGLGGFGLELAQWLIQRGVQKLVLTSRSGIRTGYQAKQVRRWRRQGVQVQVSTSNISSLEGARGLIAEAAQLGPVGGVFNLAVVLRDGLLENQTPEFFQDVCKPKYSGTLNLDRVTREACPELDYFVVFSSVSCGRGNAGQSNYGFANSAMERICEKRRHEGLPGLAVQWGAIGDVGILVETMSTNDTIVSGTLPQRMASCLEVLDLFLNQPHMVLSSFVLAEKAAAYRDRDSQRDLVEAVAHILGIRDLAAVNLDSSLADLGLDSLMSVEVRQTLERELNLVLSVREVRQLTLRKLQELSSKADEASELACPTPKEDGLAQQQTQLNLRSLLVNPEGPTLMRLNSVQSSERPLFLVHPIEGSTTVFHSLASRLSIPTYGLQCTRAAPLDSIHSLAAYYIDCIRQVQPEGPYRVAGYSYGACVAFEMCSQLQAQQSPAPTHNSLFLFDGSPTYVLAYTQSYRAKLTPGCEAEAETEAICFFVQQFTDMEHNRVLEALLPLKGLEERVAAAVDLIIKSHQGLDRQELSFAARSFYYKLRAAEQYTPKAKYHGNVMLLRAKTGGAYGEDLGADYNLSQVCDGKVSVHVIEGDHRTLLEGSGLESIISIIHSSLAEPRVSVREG
Sequence of Luciferin 4-monooxygenase (P08659 whole entry): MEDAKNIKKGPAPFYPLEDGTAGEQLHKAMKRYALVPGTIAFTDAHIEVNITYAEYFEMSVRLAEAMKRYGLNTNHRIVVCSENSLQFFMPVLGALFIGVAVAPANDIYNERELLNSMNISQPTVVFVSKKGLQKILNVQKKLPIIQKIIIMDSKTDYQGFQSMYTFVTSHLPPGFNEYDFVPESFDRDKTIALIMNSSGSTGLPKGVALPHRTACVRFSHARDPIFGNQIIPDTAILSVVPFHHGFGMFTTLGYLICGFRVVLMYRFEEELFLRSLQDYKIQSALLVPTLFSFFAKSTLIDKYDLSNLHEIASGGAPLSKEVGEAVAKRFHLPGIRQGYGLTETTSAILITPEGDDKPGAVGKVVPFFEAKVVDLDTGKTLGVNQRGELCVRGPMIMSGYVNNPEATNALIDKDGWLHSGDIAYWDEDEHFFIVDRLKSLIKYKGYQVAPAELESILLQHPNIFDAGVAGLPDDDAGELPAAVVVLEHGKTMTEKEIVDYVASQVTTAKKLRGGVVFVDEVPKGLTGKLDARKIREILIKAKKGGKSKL

CCC(=O)Oc1cccc(C(=O)Nc2ccc(-c3nnc(-c4ccco4)o3)cc2)c1
IC50 (H9c2): 22.7 µM (active) | EC50 [1]: > 120 µM (not active) | EC50 [2]: 3.89 µM (active) | EC50 (H4): 6.33 µM (active)

O=[N+]([O-])c1ccc(NCc2ccc(Cl)cc2)c2ccncc12
EC50 (Streptococcus): > 150 µM (not active) | IC50 (Fatty acid synthase [3]): 3.17 µM (active) | EC50 (Streptokinase A): 15.1 µM (active) | IC50 (Fatty acid synthase [4]): 3.75 µM (active) | EC50 [5]: 32.3 µM (active)

COc1cc2ncc(S(=O)(=O)c3ccccc3)c(N3CCC4(CC3)OCCO4)c2cc1OC
IC50 (Fatty acid synthase [3]): 2.55 µM (active) | IC50 (Fatty acid synthase [4]): 1.59 µM (active)

CC(NC(=O)COC(=O)c1cc([N+](=O)[O-])ccc1N1CCOCC1)c1ccccc1 (configuration not stated)
IC50 (Fatty acid synthase [3]): 4.64 µM (active) | IC50 (Fatty acid synthase [4]): 2.93 µM (active)

CN(C)S(=O)(=O)c1cccc(NC(=O)c2cc([N+](=O)[O-])ccc2N2CCCCC2)c1
IC50 (Fatty acid synthase [3]): 13.1 µM (active) | IC50 (Fatty acid synthase [4]): 12.2 µM (active)

COc1ccc(N2C(=O)NC3CC2(C)Oc2ccc(Br)cc23)cc1OC (configuration not stated)
IC50 (Fatty acid synthase [3]): 4.93 µM (active) | IC50 (Fatty acid synthase [4]): 5.33 µM (active)

O=C(CN1C(=O)S/C(=C/c2ccncc2)C1=O)N1CCOCC1
IC50 [6]: > 66 µM (inactive) | IC50 [7]: > 66 µM (inactive)

O=C(NCCc1cccc(Cl)c1)c1ccc(Cl)c([N+](=O)[O-])c1
IC50 (Fatty acid synthase [3]): 9.28 µM (active) | IC50 (Fatty acid synthase [4]): 9.95 µM (active)

Cc1onc(-c2c(F)cccc2Cl)c1C(=O)NC(=S)NC1CCS(=O)(=O)C1 (configuration not stated)
IC50 [6]: > 66 µM (inactive) | IC50 [7]: > 66 µM (inactive)

COc1ccc(C2(CNC(=O)c3cccc([N+](=O)[O-])c3)CCCCC2)cc1OC
IC50 (Fatty acid synthase [3]): 14.9 µM (active) | IC50 (Fatty acid synthase [4]): 10.2 µM (active)

COc1ccc(C(=O)NCc2ccc3c(c2)cc(C)n3C)cc1
IC50 [6]: > 66 µM (inactive) | EC50 [8]: > 112 µM (not active) | IC50 [7]: > 66 µM (inactive) | EC50 [9]: > 112 µM (not active) | IC50 (Protein skinhead-1): > 100 µM (inactive)

COC(=O)CSc1[nH]c2ccccc2c1[N+](=O)[O-]
IC50 [6]: > 66 µM (inactive) | IC50 [7]: > 66 µM (inactive)

COc1nccnc1NS(=O)(=O)c1ccc(NC(=S)NC(=O)/C=C/c2ccccc2)cc1
IC50 [6]: > 66 µM (inactive) | IC50 [7]: > 66 µM (inactive)

c1cc2c3c(cccc3c1)NC1(CCCC1)N2
IC50 [6]: > 66 µM (inactive) | IC50 [7]: > 66 µM (inactive)

CCCCN1CC(COCc2ccccc2)Oc2cccc(OCCN3C(=O)[C@@H]4[C@H](C3=O)C3C=C[C@H]4C3)c2S1(=O)=O (some centres not stated)
IC50 (H9c2): > 79 µM (inactive) | EC50 [10]: 5.15 µM (active)

CSc1nsc(NN)n1
IC50 [6]: > 66 µM (inactive) | IC50 [7]: > 66 µM (inactive)

Cc1cc(Cl)ccc1NC(=O)CCC(=O)N/N=C/c1cc([N+](=O)[O-])ccc1O
IC50 (Fatty acid synthase [3]): 12.8 µM (active) | IC50 (Fatty acid synthase [4]): 8.57 µM (active)
